The values below come from patent publication US4237311A, “2-Methyl-1-(substituted)phenyl-2-propyl esters of 2-aminopropanoic acid” (priority 1974, dated 1980).

As a reminder, the ED50 is the midpoint of the dose-response relation. By LD50 is commonly meant the dose expected to kill half of the subjects tested.

Series [1] has as its system 5-HT uptake (5-hydroxytryptamine). The experiment in a line: Inhibition of the uptake of 14C-5-HT (drug given i.p. in vivo, uptake in midbrain slices). On the set-up: species or system mice. Particulars: ip, 0.5 h, half an hour before killing, mouse midbrain slices, 5-HT 1×10^-7 M, 5 min incubation, read-out: Inhibition (50%) of uptake in vivo, 5-HT (ED50). How it is done: (§1) 1. Inhibition of the uptake of carbon-14 5-HT and tritiated noradrenaline in vitro and in vivo
The method is described by Ross, Renyi and Ogren in European Journal of Pharmacology 17 (1972), 107-112. […] The drugs were administered intraperitoneally half an hour before the animals were killed and the midbrain was taken out and sliced and incubated in a mixture consisting of, per 100 mg of brain slices, 0.2 n-mole of ^14 C--5--HT, 0.2 n-mole of ^3 H--NA and 11 μmole of glucose in 2 ml of Krebs-Henseleit buffer, pH 7.4. The incubation time was 5 minutes. The radioactive amines taken up in the slices were dissolved in Soluene-350®(Packard) and the amounts were determined with the double labelling technique by liquid scintillation. The dose producing 50 percent decrease of the active uptake (ED50) was determined graphically from dose response curves. Active uptake is defined as that part of the radioactive uptake which is inhibited by a high concentration of cocaine. All doses were given at least to four animals.

The test system of the next series is 5-HTP response. In words: 5-HTP response potentiation test. Format: in vivo, mice. The note with it: for minimal effective dose: Mus musculus, ip, test drug one hour (or 4, 24 hours) before dl-5-HTP 90 mg/kg i.v., mice, read-out: Potentiation of 5-HTP, effective dose (least dose producing maximal score +3 in all animals). The text has this:
1. 5-HTP response potentiation test
Inhibition of the uptake of 5-HT potentiates the effects of administered 5-hydroxytryptophan (5-HTP) probably by increasing the amount of 5-HT at the receptor. […] The strength of the syndrome is scored from 0 to +3.

The nature of a further series: in vivo. Particulars: mouse, iv, mice, killing 50% within 7 days, read-out: Acute toxicity LD50. How it is done:
ACUTE TOXICITY, BEHAVIOUR AND ANTICHOLINERGIC STUDY IN MICE
The compounds were given by intravenous route to 6 mice. LD50 is the dose which kills 50% of the animals within 7 days. Seizures, gait, sedation and gripstrength were recorded.

For a further series, the system named is male rats. The experiment in a line: Drug induced arrhythmias in rats. Format: in vivo. The note with it: male rats anesthetized with Nembutal, stepwise increased doses. The text has this: DRUG INDUCED ARRHYTHMIAS IN RATS
Test drugs were intravenously administered to male rats anesthetized with Nembutal®. The doses were increased stepwise up to the lethal dose and the first dose which induced arrhythmia was noted.

In series [2] the test system is NA uptake (noradrenaline). The experiment in a line: Inhibition of the uptake of tritiated noradrenaline (drug given i.p. in vivo, uptake in midbrain slices). On the set-up: species or system mice. Particulars: ip, 0.5 h, half an hour before killing, mouse midbrain slices, noradrenaline 1×10^-7 M, 5 min incubation, read-out: Inhibition (50%) of uptake in vivo, NA (ED50). On the procedure:
as §1
The drugs were administered intraperitoneally half an hour before the animals were killed and the midbrain was taken out and sliced and incubated in a mixture consisting of, per 100 mg of brain slices, 0.2 n-mole of ^14 C--5--HT, 0.2 n-mole of ^3 H--NA and 11 μmole of glucose in 2 ml of Krebs-Henseleit buffer, pH 7.4. The incubation time was 5 minutes. The radioactive amines taken up in the slices were dissolved in Soluene-350®(Packard) and the amounts were determined with the double labelling technique by liquid scintillation. The dose producing 50 percent decrease of the active uptake (ED50) was determined graphically from dose response curves. Active uptake is defined as that part of the radioactive uptake which is inhibited by a high concentration of cocaine. All doses were given at least to four animals.

Another series deals with man. Particulars: cited from earlier work.
For series [3], the system named is noradrenaline (NA) re-uptake mechanism. The note with it: central nervous system; cited from earlier work.
The subject of series [4] is 5-hydroxytryptamine (5-HT) re-uptake mechanism. The note with it: central nervous system; cited from earlier work.

Consider `CC(N)C(=O)OC(C)(C)Cc1ccc(Cl)cc1.Cl` (centres unmarked) [GEA 654, 2-aminopropanoic acid 1-(4-chlorophenyl)-2-methyl-2-propylester hydrochloride], for which the ED50 in series [1] is 15 mg/kg; in series [2], more than 40 mg/kg. For the same molecule, in the series with 5-HTP response, the minimal effective dose came out at 1 mg/kg. Besides, the LD50 at 168 h in “in vivo” worked out at 70 mg/kg. Further, the “Arrhythmia, accumulated i.v. dose where there are signs of arrhythmia” value in the series with male rats is recorded as 63 mg/kg.

As to `CC(N)C(=O)OC(C)(C)Cc1ccc(Cl)c(Cl)c1` (centres unmarked) [GEA 699], the ED50 in series [1] was 15 mg/kg; in series [2], more than 40 mg/kg. In addition, the minimal effective dose with 5-HTP response was determined as 7 mg/kg.

In the case of `CC(N)C(=O)OC(C)(C)Cc1ccc(F)cc1` (centres unmarked) [GEA 822], the figures for the ED50 in series [1] and in series [2] were 30 mg/kg and more than 40 mg/kg, respectively.

In the case of `CC(N)C(=O)OC(C)(C)Cc1ccccc1` (centres unmarked) [GEA 916], the results for the ED50 in series [1] and in series [2] were 15 mg/kg and more than 40 mg/kg, respectively. In addition, the minimal effective dose in the series with 5-HTP response amounted to 8 mg/kg.

`CC(N)C(=O)OC(C)(C)Cc1ccc(Br)cc1` (centres unmarked) [GEA 917]: the results for the ED50 in series [1] and in series [2] were 25 mg/kg and more than 40 mg/kg, respectively. Besides, the minimal effective dose with 5-HTP response amounted to 5 mg/kg.

As for `CC(N)C(=O)OC(C)(C)Cc1cccc(Cl)c1` (centres unmarked) [GEA 935], the ED50 in series [1] was 5 mg/kg; in series [2], more than 40 mg/kg. Besides, the minimal effective dose with 5-HTP response was 3 mg/kg.

For the molecule `Cc1ccc(CC(C)(C)OC(=O)C(C)N)cc1` (centres unmarked) [GEA 937], the ED50 is 10 mg/kg in series [1] and more than 40 mg/kg in series [2]. Moreover, in the series on 5-HTP response, the minimal effective dose amounted to 12 mg/kg.

For the molecule `CN(C)CCCN1c2ccccc2CCc2ccccc21` [Imipramine], the “anticholinergic effect and symptoms (in words)” value in the series with man is “anticholinergic and causes anticholinergic symptoms such as dryness of the mouth, tremor, tachycardia and sweating”. The “mood and psychomotor effect (in words)” value in the series with man was “both mood elevating and psychomotor activating”. The “onset of the antidepressive effect” value in the series on man (treatment with imipramine) is given as “about 3 weeks”. For the same molecule, the ED50 in series [1] worked out at 24 mg/kg; in series [2], 6 mg/kg. Besides, the “inhibition of the re-uptake mechanism of noradrenaline (in words)” value in series [3] is on record as “inhibits the re-uptake mechanism of noradrenaline (NA)”. The minimal effective dose in the series with 5-HTP response is 15 mg/kg. In addition, the “potentiation of dl-5-HTP by the reference drug (in words)” value with 5-HTP response (control groups, reference) was “constantly potentiated dl-5-HTP”. The “Arrhythmia, accumulated i.v. dose where there are signs of arrhythmia” value with male rats amounted to 8 mg/kg. In addition, in series [4], the “inhibition of the re-uptake mechanism of 5-hydroxytryptamine (in words)” value is “inhibits the re-uptake mechanism of noradrenaline (NA) and 5-hydroxytryptamine (5-HT)”.
